Experimental data: patent publication US20230063321A1, “Methods for Treating Inflammatory Bowel Diseases with alpha4beta7 Integrin Antagonists” (Protagonist Therapeutics, Inc., priority 2020, published 2023)
“And” between values parts separate entries of the source, which are not always exact repeats. Equal entries are not always repeated. Numbered stars: 1 amine (or outer) side, 2 acyl side, 3 side chain; on linkers, the order of the positions; unused ones are H or OH. Bridge positions count the residues as written; N and C are the ends. Square brackets hold non-standard residues; d marks the D form. Peptide text beside a SMILES is read from it. I, II: the chains in the order shown. ξ: configuration not given here. Phe(4-tBu) = CC(C)(C)c1ccc(C[C@H](N)C(=O)O)cc1; Diglycolyl = O=C(COCC(=O)[*:2])[*:1]; NMeR = CN[C@@H](CCCNC(=N)N)C(=O)O; β3hE = N[C@@H](CCC(=O)O)CC(=O)O; Thr(3ξ) = CC(O)[C@H](N)C(=O)O; X1 = O=C(c1ccccc1C[*:2])[*:1]; Pen = CC(C)(S)[C@H](N)C(=O)O

How the values were obtained:
[1] = target: T1, α4β7 integrin on memory CD4+ T cells (Homo sapiens, UniProt P13612+P26010); experiment: Study 1 blood α4β7 receptor occupancy and receptor expression; format: in vivo; settings: for Average RE (%) / Average RO (%) / REmax (%) / ROmax (%) / Tmax for RE / Tmax for RO: Mean ± SD
T1 construct: the amount of α4β7 expression on the cell surface of circulating lymphocytes; endogenous in cells; host or cells: heparinized whole blood of healthy volunteers
Description: After staining is completed, the samples are treated with a red blood cell lysis and fixation buffer, washed and acquired on a flow cytometer. To quantify receptor occupancy on α4β7 expressing memory CD4 T cells, the […] fluorescence intensity (MFI) of Alexa647-labelled peptide within the vedolizumab+ memory CD4+ T cells was used. Receptor occupancy was calculated according to the following formula: [Percent RO]=(1−([Unblocked]−[Blocked])/([Baseline Unblocked]−[Baseline Blocked]))×100.
Expression of α4β7 is defined by MFI of vedolizumab within the memory CD4+ T cells from the unblocked samples. Receptor expression (RE) was calculated as percent change of MFI from baseline for the vedolizumab stain.

[2] = Drug exposure in plasma and Peyer's patches after oral dosing
Description: One hour following dosing, mice were euthanized and whole blood/plasma and Peyer's patches were collected. Peyer's patches were dispersed in 1 mL RPMI medium with 2% FBS without washing step. Whole blood and single cell suspension of Peyer's patches (100 uL out of 1 mL total) were submitted for flow cytometry to determine α4β7 receptor occupancy. % RO=(1−(% positive test sample/% positive median vehicle control))*100. Plasma and Peyer's patches dispersed in single cell suspension (500 uL of 1 mL total) were also analyzed for drug exposure.

[3] = 300 mg Fasted once daily, Day 1
[4] = 300 mg Fasted once daily, Day 14
[5] = 1000 mg Fasted once daily, Day 1
[6] = 1000 mg Fasted once daily, Day 14
[7] = single dose 1400 mg, listed as COMPOUND A

T1 sequence (P13612 34-1032): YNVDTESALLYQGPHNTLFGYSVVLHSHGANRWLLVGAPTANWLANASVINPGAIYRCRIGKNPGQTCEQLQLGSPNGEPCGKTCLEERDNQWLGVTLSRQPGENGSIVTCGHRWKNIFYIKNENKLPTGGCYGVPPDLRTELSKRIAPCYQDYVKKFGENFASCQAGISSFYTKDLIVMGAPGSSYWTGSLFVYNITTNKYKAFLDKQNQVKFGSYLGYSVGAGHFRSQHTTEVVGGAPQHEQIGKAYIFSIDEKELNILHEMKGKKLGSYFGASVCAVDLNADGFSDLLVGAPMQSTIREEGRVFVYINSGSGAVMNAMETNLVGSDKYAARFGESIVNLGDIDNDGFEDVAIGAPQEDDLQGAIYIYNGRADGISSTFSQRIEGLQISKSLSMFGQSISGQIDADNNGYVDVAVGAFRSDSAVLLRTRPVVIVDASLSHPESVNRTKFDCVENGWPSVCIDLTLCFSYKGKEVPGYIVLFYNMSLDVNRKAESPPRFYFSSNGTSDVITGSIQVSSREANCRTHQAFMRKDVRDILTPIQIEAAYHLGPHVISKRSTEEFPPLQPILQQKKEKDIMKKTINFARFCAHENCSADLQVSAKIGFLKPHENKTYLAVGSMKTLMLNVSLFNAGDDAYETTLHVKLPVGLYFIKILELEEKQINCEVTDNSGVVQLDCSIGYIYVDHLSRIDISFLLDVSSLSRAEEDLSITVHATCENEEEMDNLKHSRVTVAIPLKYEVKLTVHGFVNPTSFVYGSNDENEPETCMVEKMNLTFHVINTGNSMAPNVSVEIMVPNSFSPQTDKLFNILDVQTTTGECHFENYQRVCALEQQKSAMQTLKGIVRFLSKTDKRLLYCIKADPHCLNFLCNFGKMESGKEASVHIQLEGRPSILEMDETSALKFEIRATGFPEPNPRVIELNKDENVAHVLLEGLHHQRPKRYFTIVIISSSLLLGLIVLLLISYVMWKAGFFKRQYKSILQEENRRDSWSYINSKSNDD
T1 sequence (P26010 20-798): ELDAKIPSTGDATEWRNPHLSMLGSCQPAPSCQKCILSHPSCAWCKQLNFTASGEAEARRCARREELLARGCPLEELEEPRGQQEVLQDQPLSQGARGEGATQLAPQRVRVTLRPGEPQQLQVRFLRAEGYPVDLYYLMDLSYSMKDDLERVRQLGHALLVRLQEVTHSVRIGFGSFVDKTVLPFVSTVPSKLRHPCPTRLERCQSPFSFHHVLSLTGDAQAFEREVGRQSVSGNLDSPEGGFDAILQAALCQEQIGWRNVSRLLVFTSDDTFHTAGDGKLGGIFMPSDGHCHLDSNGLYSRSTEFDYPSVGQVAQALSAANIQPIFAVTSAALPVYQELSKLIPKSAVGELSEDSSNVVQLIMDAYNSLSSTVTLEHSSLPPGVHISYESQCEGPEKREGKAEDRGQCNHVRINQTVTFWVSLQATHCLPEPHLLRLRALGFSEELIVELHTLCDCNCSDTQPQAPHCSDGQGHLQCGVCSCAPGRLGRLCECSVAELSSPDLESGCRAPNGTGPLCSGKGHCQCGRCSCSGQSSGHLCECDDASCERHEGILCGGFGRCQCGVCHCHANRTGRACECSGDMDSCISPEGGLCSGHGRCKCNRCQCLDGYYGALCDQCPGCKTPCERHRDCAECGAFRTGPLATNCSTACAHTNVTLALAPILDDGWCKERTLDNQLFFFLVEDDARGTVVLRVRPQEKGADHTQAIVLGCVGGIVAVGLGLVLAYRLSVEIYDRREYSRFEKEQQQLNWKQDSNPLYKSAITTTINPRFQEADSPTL

CC(C)C[C@@H]1NC(=O)[C@H](C(C)O)NC(=O)[C@H](CC(=O)O)NC(=O)[C@H](CO)NC(=O)[C@H](CCCNC(=N)N)N(C)C(=O)c2ccccc2CSC(C)(C)[C@@H](C(=O)N[C@@H](Cc2ccc(C(C)(C)C)cc2)C(=O)N[C@@H](CCC(=O)O)CC(=O)N[C@H](CCCCNC(=O)COCC(=O)NCCCC[C@@H](NC(=O)C[C@H](CCC(=O)O)NC(=O)[C@H](Cc2ccc(C(C)(C)C)cc2)NC(=O)[C@H]2NC(=O)[C@H](CC(C)C)NC(=O)[C@H](C(C)O)NC(=O)[C@H](CC(=O)O)NC(=O)[C@H](CO)NC(=O)[C@H](CCCNC(=N)N)N(C)C(=O)c3ccccc3CSC2(C)C)C(=O)O)C(=O)O)NC1=O (stereo partly drawn) [Compound A, ((2-Benzyl)-(N-Me-R)-Ser-Asp-Thr-Leu-Pen-(Phe(4-tBlu))-(β-homo-Glu)-(D-Lys)-OH)2 (SEQ ID NO: 5) and linker-DIG diglycolic acid] (I: [NMeR]SD[Thr(3ξ)]L[Pen][Phe(4-tBu)][β3hE][dK]-OH / II: [NMeR]SD[Thr(3ξ)]L[Pen][Phe(4-tBu)][β3hE][dK]-OH; linker I:9-II:9 via Diglycolyl; linker I:N-I:6, II:N-II:6 via X1)
Complete Mayo Score, Adapted Mayo Score, and/or Partial Mayo Score vs placebo (450 mg BID or 150 mg BID): statistically significant improvement
safety of treatment (in vivo): safe
Average RE (%) ([1]; 100 mg Fed once daily, Day 1): −12.3 ± 6.6%
Average RO (%) ([1]; 100 mg Fed once daily, Day 1): 30.0 ± 7.7%
REmax (%) ([1]; 100 mg Fed once daily, Day 1): −17.4 ± 7.5%
ROmax (%) ([1]; 100 mg Fed once daily, Day 1): 46.8 ± 11.2%
Tmax for RE ([1]; 100 mg Fed once daily, Day 1): 14.0 ± 4.2 h
Tmax for RO ([1]; 100 mg Fed once daily, Day 1): 6.0 ± 3.7 h
Average RE (%) ([1]; 100 mg Fed once daily, Day 14): −23.8 ± 6.9%
Average RO (%) ([1]; 100 mg Fed once daily, Day 14): 40.5 ± 7.5%
REmax (%) ([1]; 100 mg Fed once daily, Day 14): −29.1 ± 7.2%
ROmax (%) ([1]; 100 mg Fed once daily, Day 14): 55.5 ± 8.82%
Tmax for RE ([1]; 100 mg Fed once daily, Day 14): 12.0 ± 0 h
Tmax for RO ([1]; 100 mg Fed once daily, Day 14): 5.0 ± 2.8 h
Average RE (%) [1, 3]: −25.1 ± 4.4%
Average RO (%) [1, 3]: 53.9 ± 6.5%
REmax (%) [1, 3]: −33.1 ± 5.2%
ROmax (%) [1, 3]: 77.8 ± 5.13%
Tmax for RE [1, 3]: 12.0 ± 0 h
Tmax for RO [1, 3]: 4.0 ± 0 h
ROmax (%) ([1]; 300 mg Fasted once daily, Day 1, listed as COMPOUND A): 77.8%
Average RE (%) [1, 4]: −37.7 ± 5.2%
Average RO (%) [1, 4]: 61.1 ± 6.0%
REmax (%) [1, 4]: −41.5 ± 5.9%
ROmax (%) [1, 4]: 79.7 ± 5.40%
Tmax for RE [1, 4]: 6.0 ± 3.7 h
Tmax for RO [1, 4]: 4.0 ± 0 h
ROmax (%) ([1]; 300 mg Fasted once daily, Day 14, listed as COMPOUND A): 79.7%
Average RE (%) ([1]; 300 mg Fed once daily, Day 1): −20.1 ± 3.4%
Average RO (%) ([1]; 300 mg Fed once daily, Day 1): 47.2 ± 7.5%
REmax (%) ([1]; 300 mg Fed once daily, Day 1): −28.4 ± 4.4%
ROmax (%) ([1]; 300 mg Fed once daily, Day 1): 70.4 ± 7.39%
Tmax for RE ([1]; 300 mg Fed once daily, Day 1): 12.0 ± 0 h
Tmax for RO ([1]; 300 mg Fed once daily, Day 1): 4.0 ± 0 h
Average RE (%) ([1]; 300 mg Fed once daily, Day 14): −31.7 ± 4.0%
Average RO (%) ([1]; 300 mg Fed once daily, Day 14): 57.8 ± 3.9%
REmax (%) ([1]; 300 mg Fed once daily, Day 14): −37.2 ± 4.7%
ROmax (%) ([1]; 300 mg Fed once daily, Day 14): 78.9 ± 5.89%
Tmax for RE ([1]; 300 mg Fed once daily, Day 14): 12.0 ± 0 h
Tmax for RO ([1]; 300 mg Fed once daily, Day 14): 4.0 ± 0 h
peak percent receptor occupancy ([1]; 300 mg within 30 minutes following a high fat meal): 61.4%
Average RE (%) ([1]; 450 mg BID, Day 1): −33.4 ± 4.4%
Average RO (%) ([1]; 450 mg BID, Day 1): 76.4 ± 8.4%
REmax (%) ([1]; 450 mg BID, Day 1): −42.6 ± 4.6%
ROmax (%) ([1]; 450 mg BID, Day 1): 86.5% and 86.5 ± 4.11%
Tmax for RE ([1]; 450 mg BID, Day 1): 19 ± 4.7 h
Tmax for RO ([1]; 450 mg BID, Day 1): 16 ± 6.2 h
Average RE (%) ([1]; 450 mg BID, Day 5, N = 7): −44.3 ± 4.2%
REmax (%) ([1]; 450 mg BID, Day 5, N = 7): −47.3 ± 4.3%
ROmax (%) ([1]; 450 mg BID, Day 5, N = 7): 91.9% and 91.9 ± 3.42%
Tmax for RE ([1]; 450 mg BID, Day 5, N = 7): 5.6 ± 5.1 h
Tmax for RO ([1]; 450 mg BID, Day 5, N = 7): 2.3 ± 1.6 h
Average RO (%) ([1]; 450 mg BID, Day 5, N = 7, 24-hour AUEC): 85.3% and 85.3 ± 7.3%
receptor occupancy at 450 mg ([1]; 450 mg twice daily, read-out: trough receptor occupancy): ~79.2%
Average RE (%) ([1]; 900 mg QD, Day 1): −38.3 ± 4.9%
Average RO (%) ([1]; 900 mg QD, Day 1): 80.7 ± 6.7%
REmax (%) ([1]; 900 mg QD, Day 1): −47.3 ± 5.0%
ROmax (%) ([1]; 900 mg QD, Day 1): 94.5% and 94.5 ± 2.61%
Tmax for RE ([1]; 900 mg QD, Day 1): 13 ± 1.4 h
Tmax for RO ([1]; 900 mg QD, Day 1): 5.4 ± 3.9 h
Average RE (%) ([1]; 900 mg QD, Day 5): −44.6 ± 6.3%
REmax (%) ([1]; 900 mg QD, Day 5): −50.1 ± 5.3%
ROmax (%) ([1]; 900 mg QD, Day 5): 94.9% and 94.9 ± 1.97%
Tmax for RE ([1]; 900 mg QD, Day 5): 11 ± 3.9 h
Tmax for RO ([1]; 900 mg QD, Day 5): 3.3 ± 6.2 h
Average RO (%) ([1]; 900 mg QD, Day 5, 24-hour AUEC): 79.2% and 79.2 ± 8.7%
Average RE (%) [1, 5]: −33.9 ± 3.4%
Average RO (%) [1, 5]: 77.1 ± 3.7%
REmax (%) [1, 5]: −43.1 ± 4.0%
ROmax (%) [1, 5]: 91.3 ± 2.93%
Tmax for RE [1, 5]: 12.0 ± 0 h
Tmax for RO [1, 5]: 7.0 ± 4.1 h
ROmax (%) ([1]; 1000 mg Fasted once daily, Day 1, listed as COMPOUND A): 91.3%
Average RE (%) [1, 6]: −51.3 ± 3.1%
Average RO (%) [1, 6]: 81.5 ± 15.5%
REmax (%) [1, 6]: −57.3 ± 2.9%
ROmax (%) [1, 6]: 95.6 ± 0.97%
Tmax for RE [1, 6]: 4.0 ± 0 h
Tmax for RO [1, 6]: 4.0 ± 0 h
ROmax (%) ([1]; 1000 mg Fasted once daily, Day 14, listed as COMPOUND A): 95.6%
mean peak receptor occupancy ([1]; doses of 900 mg): greater than 90%
trough receptor occupancy ([1]; once-daily 100 mg): approximately 25.4%
trough receptor occupancy ([1]; once-daily 1000 mg): ~78.6%
receptor occupancy at trough ([1]; once-daily or twice-daily dosing): greater than 80%
Average RE (%) ([1]; single dose 100 mg): −21.6 ± 7.1%
Average RO (%) ([1]; single dose 100 mg): 38.9 ± 12.5%
ROmax (%) ([1]; single dose 100 mg): 61.8 ± 10.8%
Tmax for RE ([1]; single dose 100 mg): 11 ± 6.0 h
Tmax for RO ([1]; single dose 100 mg): 3.8 ± 2.2 h
REmax (%) ([1]; single dose 100 mg, change from baseline): −28.2 ± 7.97%
REmax (%) ([1]; single dose 100 mg, change from baseline, listed as COMPOUND A): −28.2%
ROmax (%) ([1]; single dose 100 mg, listed as COMPOUND A): 61.8%
Average RE (%) ([1]; single dose 300 mg): −32.4 ± 3.0%
Average RO (%) ([1]; single dose 300 mg): 64.3 ± 6.6%
REmax (%) ([1]; single dose 300 mg): −43.6 ± 3.69%
ROmax (%) ([1]; single dose 300 mg): 83.4 ± 7.92%
Tmax for RE ([1]; single dose 300 mg): 12 ± 0 h
Tmax for RO ([1]; single dose 300 mg): 4.6 ± 2.3 h
ROmax (%) ([1]; single dose 300 mg, listed as COMPOUND A): 83.4%
Average RE (%) ([1]; single dose 1000 mg): −36.3 ± 2.9%
Average RO (%) ([1]; single dose 1000 mg): 81.0 ± 3.5%
REmax (%) ([1]; single dose 1000 mg): −45.4 ± 3.70%
ROmax (%) ([1]; single dose 1000 mg): 93.6 ± 2.04%
Tmax for RE ([1]; single dose 1000 mg): 12 ± 0 h
Tmax for RO ([1]; single dose 1000 mg): 4.1 ± 1.9 h
Average RE (%) ([1]; single dose 1400 mg): −40.3 ± 6.9%
Average RO (%) ([1]; single dose 1400 mg): 86.0 ± 6.8%
REmax (%) ([1]; single dose 1400 mg): −49.0 ± 8.20%
ROmax (%) ([1]; single dose 1400 mg): 94.8 ± 3.55%
Tmax for RE ([1]; single dose 1400 mg): 12 ± 0 h
Tmax for RO ([1]; single dose 1400 mg): 4.6 ± 3.2 h
REmax (%) [1, 7]: −49.0%
ROmax (%) [1, 7]: 94.8%
concentration in plasma and Peyer's Patches vs dose ([2]; 3 and 30 mg/kg): significant dose-dependent increase
concentration in Peyer's Patches compared to plasma ([2]; both dose levels (3 and 30 mg/kg)): significantly higher
